Results taken from PubChem BioAssay AID1963423 (Molecular Pharmacology Branch, DTP, NCI, 2024).

Test system: 439559-082-T-J2-PDC complex spheroid growth
Experiment: Anticancer human tumor 439559-082-T-J2-PDC patient-derived colon adenocarcinoma cell line growth inhibition [Asc]
Details: for IC50: curve of first compound; for viability, T/C: stronger effect = lower value; active = viability on the fitted dose curve at most 10% of control; inactive = the rest
Method in brief: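 Complex solid-tumor spheroids incorporating human endothelial and mesenchymal stem cells received single agents or combinations over half-log dilution ranges anchored to clinical Cmax.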

[1] = second compound 0.1 µM, first compound 0.0316 µM
[2] = second compound 0.1 µM, first compound 0.1 µM
[3] = second compound 0.1 µM, first compound 0.316 µM
[4] = second compound 0.1 µM, first compound 1 µM
[5] = second compound 0.316 µM, first compound 0.0316 µM
[6] = second compound 0.316 µM, first compound 0.1 µM
[7] = second compound 0.316 µM, first compound 0.316 µM
[8] = second compound 0.316 µM, first compound 1 µM
[9] = second compound 1 µM, first compound 0.0316 µM
[10] = second compound 1 µM, first compound 0.1 µM
[11] = second compound 1 µM, first compound 0.316 µM
[12] = second compound 1 µM, first compound 1 µM
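Also: spheroids exposed to agents for 7 days starting day 3 after seeding.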
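For viability, T/C in this document: percent of DMSO vehicle control viability with 100% = vehicle.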

C=CC(=O)N1CCN(c2nc(=O)n(-c3c(C)ccnc3C(C)C)c3nc(-c4c(O)cccc4F)c(F)cc23)C(C)C1 (configuration not stated) + CNC(C)C(=O)NC1CN(S(=O)(=O)c2cccc(S(=O)(=O)N3CCC4CCC(C(=O)NC(c5ccccc5)c5ccccc5)N4C(=O)C(NC(=O)C(C)NC)C3)c2)CCC2CCC(C(=O)NC(c3ccccc3)c3ccccc3)N2C1=O
> 10000 nM: IC50 (second compound 0.00316 µM) | IC50 (second compound 0.01 µM) | IC50 (second compound 0.0316 µM) | IC50 (second compound 0.1 µM) | IC50 (second compound 0.316 µM) | IC50 (second compound 1 µM)
inactive: viability, T/C (second compound 0.00316 µM, first compound 0.0316 µM) 103% | viability, T/C (second compound 0.00316 µM, first compound 0.1 µM) 94.8% | viability, T/C (second compound 0.00316 µM, first compound 0.316 µM) 97.2% | viability, T/C (second compound 0.00316 µM, first compound 1 µM) 101% | viability, T/C (second compound 0.00316 µM, first compound 3.16 µM) 105% | viability, T/C (second compound 0.00316 µM, first compound 10 µM) 102% | viability, T/C (second compound 0.01 µM, first compound 0.0316 µM) 110% | viability, T/C (second compound 0.01 µM, first compound 0.1 µM) 94.9% | viability, T/C (second compound 0.01 µM, first compound 0.316 µM) 95.5% | viability, T/C (second compound 0.01 µM, first compound 1 µM) 107% | viability, T/C (second compound 0.01 µM, first compound 3.16 µM) 111% | viability, T/C (second compound 0.01 µM, first compound 10 µM) 103% | viability, T/C (second compound 0.0316 µM, first compound 0.0316 µM) 93.6% | viability, T/C (second compound 0.0316 µM, first compound 0.1 µM) 95.3% | viability, T/C (second compound 0.0316 µM, first compound 0.316 µM) 89.9% | viability, T/C (second compound 0.0316 µM, first compound 1 µM) 99% | viability, T/C (second compound 0.0316 µM, first compound 3.16 µM) 95% | viability, T/C (second compound 0.0316 µM, first compound 10 µM) 99.6% | viability, T/C [1] 111% | viability, T/C [2] 105% | viability, T/C [3] 100% | viability, T/C [4] 93.8% | viability, T/C (second compound 0.1 µM, first compound 3.16 µM) 104% | viability, T/C (second compound 0.1 µM, first compound 10 µM) 91.3% | viability, T/C [5] 105% | viability, T/C [6] 109% | viability, T/C [7] 99.9% | viability, T/C [8] 105% | viability, T/C (second compound 0.316 µM, first compound 3.16 µM) 94% | viability, T/C (second compound 0.316 µM, first compound 10 µM) 103% | viability, T/C [9] 81.9% | viability, T/C [10] 78% | viability, T/C [11] 85.4% | viability, T/C [12] 76.3% | viability, T/C (second compound 1 µM, first compound 3.16 µM) 101% | viability, T/C (second compound 1 µM, first compound 10 µM) 93.6%

COc1c(OCCCN2CCOCC2)ccc2c3n(c(=NC(=O)c4cnc(N)nc4)nc12)CCN3 + Cc1c(S(C)(=O)=O)c(-c2cc(F)cc(N3CCN(c4ccc(NS(=O)(=O)c5ccc(NC(CCN6CCC(C(=O)OCCCP(=O)(O)O)CC6)CSc6ccccc6)c(S(=O)(=O)C(F)(F)F)c5)cc4)CC3)c2)c(-c2ccc(Cl)cc2)n1C(C)C
> 1000 nM: IC50 (second compound 0.1 µM) | IC50 (second compound 0.316 µM) | IC50 (second compound 1 µM)
inactive: viability, T/C (second compound 0.1 µM, first compound 0.00316 µM) 97.8% | viability, T/C (second compound 0.1 µM, first compound 0.01 µM) 98.6% | viability, T/C [1] 85.8% | viability, T/C [2] 63.8% | viability, T/C [3] 67.1% | viability, T/C [4] 55% | viability, T/C (second compound 0.316 µM, first compound 0.00316 µM) 95.9% | viability, T/C (second compound 0.316 µM, first compound 0.01 µM) 97.9% | viability, T/C [5] 90.8% | viability, T/C [6] 63.4% | viability, T/C [7] 62% | viability, T/C [8] 54.1% | viability, T/C (second compound 1 µM, first compound 0.00316 µM) 90.2% | viability, T/C (second compound 1 µM, first compound 0.01 µM) 89.7% | viability, T/C [9] 82.6% | viability, T/C [10] 64.6% | viability, T/C [11] 59% | viability, T/C [12] 49.7% | viability, T/C (second compound 3.16 µM, first compound 0.00316 µM) 85.6% | viability, T/C (second compound 3.16 µM, first compound 0.01 µM) 84.8% | viability, T/C (second compound 3.16 µM, first compound 0.0316 µM) 79.9% | viability, T/C (second compound 3.16 µM, first compound 0.1 µM) 59.5% | viability, T/C (second compound 3.16 µM, first compound 0.316 µM) 50.8% | viability, T/C (second compound 3.16 µM, first compound 1 µM) 48% | viability, T/C (second compound 10 µM, first compound 0.00316 µM) 69% | viability, T/C (second compound 10 µM, first compound 0.01 µM) 84.7% | viability, T/C (second compound 10 µM, first compound 0.0316 µM) 72% | viability, T/C (second compound 10 µM, first compound 0.1 µM) 50.4% | viability, T/C (second compound 10 µM, first compound 0.316 µM) 36.9% | viability, T/C (second compound 10 µM, first compound 1 µM) 37.2%
101 nM: IC50 (second compound 10 µM)
312 nM: IC50 (second compound 3.16 µM)

NC1CCC(NC2CC2c2ccccc2)CC1 (configuration not stated) + CCN1C(C(=O)NC23CCC(C(=O)O)(CC2)CC3)C(c2cccc(Cl)c2F)C2(C(=O)Nc3cc(Cl)ccc32)C12CCCCC2
inactive: viability, T/C (second compound 0.03 µM, first compound 0.000316 µM) 95.4% | viability, T/C (second compound 0.03 µM, first compound 0.001 µM) 107% | viability, T/C (second compound 0.03 µM, first compound 0.00316 µM) 119% | viability, T/C (second compound 0.03 µM, first compound 0.01 µM) 95.5% | viability, T/C (second compound 0.03 µM, first compound 0.0316 µM) 102% | viability, T/C (second compound 0.03 µM, first compound 0.1 µM) 99.7% | viability, T/C (second compound 0.0949 µM, first compound 0.000316 µM) 105% | viability, T/C (second compound 0.0949 µM, first compound 0.001 µM) 111% | viability, T/C (second compound 0.0949 µM, first compound 0.00316 µM) 123% | viability, T/C (second compound 0.0949 µM, first compound 0.01 µM) 100% | viability, T/C (second compound 0.0949 µM, first compound 0.0316 µM) 98.8% | viability, T/C (second compound 0.0949 µM, first compound 0.1 µM) 107% | viability, T/C (second compound 0.3 µM, first compound 0.000316 µM) 97.6% | viability, T/C (second compound 0.3 µM, first compound 0.001 µM) 111% | viability, T/C (second compound 0.3 µM, first compound 0.00316 µM) 110% | viability, T/C (second compound 0.3 µM, first compound 0.01 µM) 98.4% | viability, T/C (second compound 0.3 µM, first compound 0.0316 µM) 110% | viability, T/C (second compound 0.3 µM, first compound 0.1 µM) 111% | viability, T/C (second compound 0.949 µM, first compound 0.000316 µM) 111% | viability, T/C (second compound 0.949 µM, first compound 0.001 µM) 124% | viability, T/C (second compound 0.949 µM, first compound 0.00316 µM) 121% | viability, T/C (second compound 0.949 µM, first compound 0.01 µM) 100% | viability, T/C (second compound 0.949 µM, first compound 0.0316 µM) 107% | viability, T/C (second compound 0.949 µM, first compound 0.1 µM) 114% | viability, T/C (second compound 3 µM, first compound 0.000316 µM) 96.8% | viability, T/C (second compound 3 µM, first compound 0.001 µM) 98.5% | viability, T/C (second compound 3 µM, first compound 0.00316 µM) 103% | viability, T/C (second compound 3 µM, first compound 0.01 µM) 98.6% | viability, T/C (second compound 3 µM, first compound 0.0316 µM) 94.1% | viability, T/C (second compound 3 µM, first compound 0.1 µM) 107%
> 100 nM: IC50 (second compound 0.03 µM) | IC50 (second compound 0.0949 µM) | IC50 (second compound 0.3 µM) | IC50 (second compound 0.949 µM) | IC50 (second compound 3 µM)
